Assay results as given in patent US10919889B2, “Chiral heterocyclic compound with hedgehog pathway antagonist activity, method and use thereof” (SUZHOU KINTOR PHARMACEUTICALS, INC., priority 2016, dated 2021).
Like-named read-outs stand apart in the source and are kept apart here.

Legend:
[1] = system: Hh signaling pathway; assay: NIH3T3-GRE-Luc luciferase reporter assay (primary assay); assay type: cell-based
Excerpt: NIH3T3 cells (CRL-1658, ATCC) were maintained in DMEM (Gibico) supplemented with 10% FBS (Hyclone). GRE-Luc plasmid was generated by inserting 8×Gli-1 responsive element (GRE) into the multiple cloning site of pGL4.26 vector (Promega). NIH3T3-GRE-Luc reporter cell line was established by hygromycin (Invitrogen) selection after transfected with GRE-Luc luciferase reporter plasmid. Single clones were validated by the induction of luciferase by recombinant sonic hedgehog (sHh) protein or small molecule agonist SAG (ABIN629346). Selected clone was used to monitor the Hh signaling.
(§1) The NIH3T3-GRE-Luc cells were maintained in complete culture medium (DMEM with 4 mM L-Gln, 1.5 g/L sodium bicarbonate and 4.5 g/L glucose supplemented with 100 μg/mL hygromycin and 10% FBS). When confluent, the cells were trypsinized and re-suspended in assay medium (0.5% serum-containing DMEM). After 100 µL/well of cells suspension was added to the 96-well-plate (Final cell concentration is 15,000 cells/well), cells were cultured for additional 48 hours before adding the compounds.
Compounds were serially diluted in DMSO and further diluted with assay medium. In an embodiment, 10 nM SAG was added in assay medium as the agonist of Hh signaling. After the compounds and agonist were prepared, the medium was removed carefully. 100 μL of assay medium containing compound and agonist was added to the cell with care. Cell plates were incubated at 37° C. for additional 48 hours.
(§2) Following the 48 hours incubation, 40 μL/well of luciferase media (Brigh-Glo, Promega) was added to the cells. The plate was incubated at room temperature for 5 minutes under gentle shaking. Luminescence signal was measured with plate reader (PHERAstar FS, BMG). The potency of compounds was calculated based on the inhibition of luminescence signaling.
NIH3T3 cells (CRL-1658, ATCC) were maintained in DMEM (11965, Gibico) supplemented with 10% FBS (Hyclone). GRE-Luc plasmid was generated by cloning 8×Gli-1 responsive element (GRE) into the MCS of pGL4.26 (Promega). NIH3T3-GRE-Luc reporter cell lines were established by hygromycin (Invitrogen) selection after transfection with GRE-Luc luciferase reporter plasmid. Single clones were validated for the assay quality with N-terminal fragment of recombinant sonic hedgehog protein or small molecule agonist SAG (ABIN629346). Selected clone were used to monitor the Hh signaling.
as §1, with “ug/ml” for “μg/mL”, “resuspended” for “re-suspended”, “ul/well” for “µL/well”
Compounds were serially diluted in DMSO and further diluted with assay medium. In an embodiment, 10 nM SAG was added in assay medium as the agonist of Hh signaling. After the compounds and agonist were prepared, carefully remove medium (Aspirate the medium with pipette instead of vacuum, or else the NIH3T3 cells monolayer will be detached). 100 ul of assay medium containing compound or agonist was added to the cell with care. Cell plates were incubated at 37 degree for additional 48 hours.
as §2, with “ul/well” for “μL/well”, “min” for “minutes”, “basing” for “based”

[2] = target: T1, CYP3A4 (Homo sapiens, UniProt P08684); assay: CYP liver enzyme inhibition experiment, CYP-3A4; assay type: in vitro ADME; settings: human liver microsomes, pH 7.4, probe midazolam, test compound 10 μM, HLM, midazolam 1 μM, read-out: CYP-3A4 Inhibitory rate (%)
T1 construct: containing HLM (0.2 mg/mL), phosphate buffer (100 mM, pH 7.4); from tissue; host or cells: liver microsomes (HLM)
Description: (§3) The five major CYP isozymes and their respective probe substrates were: CYP-1A2 (phenacetin, 30 μM), CYP-2C9 (toluenesulfonylurea, 100 μM), CYP-2C19 40 μM), CYP-2D6 (dextromethorphan, 5 μM) and CYP-3A4 (midazolam, 1 μM). All probes were used close to or below their KMS concentrations. The mixture (200 μL) was incubated in a 37° C. constant temperature water bath, containing HLM (0.2 mg/mL), phosphate buffer (100 mM, pH 7.4), NADPH […], test compound (10 μM) and the respective CYP probe substrate. Before the reaction with NADPH, the mixture was pre-incubated for 10 minutes to undergo inhibitor-enzyme interaction. After a specific period of time (10 minutes for CYP-1A2, 2D6 and 3A4; 30 minutes for CYP-2C9 and 2C19), the reaction was quenched by addition to 100 μL solution of appropriate amount of cold acetonitrile. Reaction system was centrifuged and injected into the LC-MS/MS to quantify the concentration of specific metabolite formed from the substrate and the CYP enzyme. Each test compound was tested at least three times independently. […]
(§4) Before the start of the reaction with NADPH, the above mixture can be pre-incubated for about 10 minutes to allow inhibitor-enzyme interactions. […] The quenched mixture can be centrifuged, and aliquots of the mixture can then be analyzed by LC-MS/MS to quantify the concentrations of specific metabolic products for each CYP isozyme. […]

[3] = target: T2, CYP2C9 (Homo sapiens, UniProt P11712); assay: CYP liver enzyme inhibition experiment, CYP-2C9; assay type: in vitro ADME; settings: human liver microsomes
T2 construct: containing HLM (0.2 mg/mL), phosphate buffer (100 mM, pH 7.4); from tissue; host or cells: liver microsomes (HLM)
Description: The five major CYP isozymes and their respective probe substrates were: CYP-1A2 (phenacetin, 30 μM), CYP-2C9 (toluenesulfonylurea, 100 μM), CYP-2C19 40 μM), CYP-2D6 (dextromethorphan, 5 μM) and CYP-3A4 (midazolam, 1 μM). All probes were used close to or below their KMS concentrations. The mixture (200 μL) was incubated in a 37° C. constant temperature water bath, containing HLM (0.2 mg/mL), phosphate buffer (100 mM, pH 7.4), NADPH […], test compound (10 μM) and the respective CYP probe substrate. Before the reaction with NADPH, the mixture was pre-incubated for 10 minutes to undergo inhibitor-enzyme interaction. After a specific period of time (10 minutes for CYP-1A2, 2D6 and 3A4; 30 minutes for CYP-2C9 and 2C19), the reaction was quenched by addition to 100 μL solution of appropriate amount of cold acetonitrile. Reaction system was centrifuged and injected into the LC-MS/MS to quantify the concentration of specific metabolite formed from the substrate and the CYP enzyme. Each test compound was tested at least three times independently.
Five major CYP isozymes and their corresponding substrates are: CYP-1A2 (phenacetin, 30 μM), […], CYP2C19 (S-mephenytoin, 40 μM), CYP2D6 (dextromethorphan, 5 μM), and CYP3A4 (midazolam, 1 μM), respectively. All probe substrates were used at or lower than their KMS concentrations.
A mixture (200 μL) can be incubated at 37° C. This mixture can comprise HLM (0.2 mg/mL), phosphate buffer (100 mM, pH at about 7.4), nicotinamide adenine dinucleotide phosphate (NADPH) […], a testing compound (compound B or compound B1), and the individual substrate for the CYP isozyme tested.
Before the start of the reaction with NADPH, the above mixture can be pre-incubated for about 10 minutes to allow inhibitor-enzyme interactions. Then at specific time points (10 minutes time point for CYP-1A2, 2D6 and 3A4; 30 minutes time point for CYP-2C9 and 2C19), the reaction can be quenched by the addition of about 100 μL cold acetonitrile. The quenched mixture can be centrifuged, and aliquots of the mixture can then be analyzed by LC-MS/MS to quantify the concentrations of specific metabolic products for each CYP isozyme. For each testing compound, at least three independent assays can be completed.

[4] = target: T3, CYP2C19 (Homo sapiens, UniProt P33261); assay: CYP liver enzyme inhibition experiment, CYP-2C19; assay type: in vitro ADME; settings: human liver microsomes, pH 7.4, probe S-mephenytoin, 40 µM, test compound 10 μM, HLM, read-out: CYP-2C19 Inhibitory rate (%)
T3 construct: containing HLM (0.2 mg/mL), phosphate buffer (100 mM, pH 7.4); from tissue; host or cells: liver microsomes (HLM)
Description: as §3, §4

[5] = 48 h, 10 nM SAG as agonist, 48 hours, read-out: Effect IC50 (nM)(GRE reporter assay)
[6] = IC50 of vismodegib over that of the tested compound in the same assay
[7] = IC50 value of Vismodegib over that of the tested compound in the same assay
[8] = primary assay, Table 5, read-out: SMO IC50
[9] = pH 7.4, probe tolbutamide (tolbutamide hydroxylation), Table 6, HLM, read-out: CYP-2C9 Inhibition (%)
[10] = pH 7.4, probe toluenesulfonylurea (tolbutamide), 100 µM, at 10 μM, read-out: inhibitory activity against CYP-2C9
[11] = pH 7.4, probe toluenesulfonylurea (tolbutamide), 100 µM, at a concentration of 10M, read-out: inhibitory rate to CYP-2C9
[12] = pH 7.4, probe toluenesulfonylurea (tolbutamide), 100 µM, test compound 10 μM, HLM, read-out: CYP-2C9 Inhibitory rate (%)

T2 sequence (P11712 whole entry): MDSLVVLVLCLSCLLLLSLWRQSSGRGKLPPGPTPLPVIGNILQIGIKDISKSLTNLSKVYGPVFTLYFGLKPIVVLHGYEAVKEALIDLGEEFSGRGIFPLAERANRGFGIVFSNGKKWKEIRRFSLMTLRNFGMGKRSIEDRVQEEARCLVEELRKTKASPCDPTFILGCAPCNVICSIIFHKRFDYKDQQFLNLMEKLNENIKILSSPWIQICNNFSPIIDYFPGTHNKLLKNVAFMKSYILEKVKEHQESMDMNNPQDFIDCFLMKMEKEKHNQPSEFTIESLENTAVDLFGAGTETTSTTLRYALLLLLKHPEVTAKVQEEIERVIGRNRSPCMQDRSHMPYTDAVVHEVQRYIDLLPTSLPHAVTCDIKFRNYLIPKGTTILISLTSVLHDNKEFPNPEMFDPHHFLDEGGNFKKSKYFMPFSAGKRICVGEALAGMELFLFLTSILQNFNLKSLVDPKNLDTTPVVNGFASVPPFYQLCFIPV
T3 sequence (P33261 whole entry): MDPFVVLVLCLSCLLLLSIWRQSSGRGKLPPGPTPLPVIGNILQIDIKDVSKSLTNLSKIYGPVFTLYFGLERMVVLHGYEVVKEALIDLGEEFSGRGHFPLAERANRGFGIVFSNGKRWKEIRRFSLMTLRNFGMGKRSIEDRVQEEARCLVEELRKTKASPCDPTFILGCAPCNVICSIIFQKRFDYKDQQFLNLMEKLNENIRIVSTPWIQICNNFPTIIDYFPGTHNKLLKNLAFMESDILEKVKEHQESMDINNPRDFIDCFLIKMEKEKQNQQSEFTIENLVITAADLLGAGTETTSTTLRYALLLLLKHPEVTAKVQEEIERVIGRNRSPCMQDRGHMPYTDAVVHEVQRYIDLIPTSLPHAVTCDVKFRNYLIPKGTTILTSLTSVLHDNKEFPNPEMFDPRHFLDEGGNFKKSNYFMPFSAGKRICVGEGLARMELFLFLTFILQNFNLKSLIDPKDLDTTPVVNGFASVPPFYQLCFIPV
T1 sequence (P08684 whole entry): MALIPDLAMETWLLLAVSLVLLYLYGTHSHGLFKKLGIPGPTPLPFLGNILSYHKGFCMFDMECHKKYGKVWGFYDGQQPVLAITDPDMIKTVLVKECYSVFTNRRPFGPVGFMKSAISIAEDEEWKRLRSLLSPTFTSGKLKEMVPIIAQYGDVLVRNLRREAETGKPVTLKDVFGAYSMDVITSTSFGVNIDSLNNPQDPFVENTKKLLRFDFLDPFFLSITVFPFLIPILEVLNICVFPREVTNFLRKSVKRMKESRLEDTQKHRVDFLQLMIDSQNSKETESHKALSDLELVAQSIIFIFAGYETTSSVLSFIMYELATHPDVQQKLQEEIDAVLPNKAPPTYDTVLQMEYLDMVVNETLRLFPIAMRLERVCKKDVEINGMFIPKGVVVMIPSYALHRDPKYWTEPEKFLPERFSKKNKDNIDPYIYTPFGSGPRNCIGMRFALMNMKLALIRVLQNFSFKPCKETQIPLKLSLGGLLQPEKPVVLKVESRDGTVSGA

SMILES	IC50 [1, 5]	Ratio [1, 6]	Ratio [1, 7]	IC50 [1, 8]	IC50 ([1]; read-out: IC50 (Hh pathway))	inhibition at 10 min, 10 µM [2]	inhibition at 30 min, 10 µM [3, 9]	inhibition at 30 min, 10 µM [3, 10]	inhibition at 30 min, 10 µM [3, 11]	inhibition at 30 min, 10 µM [3, 12]	inhibition at 30 min, 10 µM [4]	Hh pathway inhibitory activity compared to compound B2 of S configuration [1]	increase of inhibitory activity against Hedgehog pathway compared with A-55 [1]	increase of Hh pathway inhibitory activity compared to racemic compound B ([1]; chiral compound vs racemic compound)
Cc1cnc(-c2cc(N3CCc4nc(N5CCC(O)CC5)ncc4C3C)ncc2Cl)c(C)c1 (racemic) [B]	2.7 nM	5.0	5.0	2.7 nM	2.7 nM	21 ± 4%	52 ± 5.2%	~52%	> 50%	52 ± 5.2%	44 ± 3.3%			
Cc1cnc(-c2cc(N3CCc4nc(N5CCC(O)CC5)ncc4[C@H]3C)ncc2Cl)c(C)c1 [Compound B1, (R)-1-(6-(5′-chloro-3,5-dimethyl-[2,4′-bipyridin]-2′-yl)-5-methyl-5,6,7,8-tetrahydropyrido[4,3-d]pyrimidin-2-yl)piperidin-4-ol]	0.8 nM	22.4	22.4	0.8 nM	0.8 nM	20 ± 5.9%	26 ± 6%	~26%	26%	26 ± 6%	43 ± 2.6%	more than 20 fold	about 12 folds	about 3 fold
